US20260335293A1, “USE OF NOVEL COMPOUND FOR TREATING INTRACTABLE DISEASES” (YJ CERAPEUTICS INC., priority 2023, published 2026)

Columns and labels:
sedation = assay: Sedation as side effect of the drug; type: in vivo, Sprague-Dawley rats; conditions: 100 mg/kg
[1] = test system: collagen in bladder muscle; assay: Collagen content in bladder muscle (Masson's trichrome) in SCI model; type: in vivo, Sprague-Dawley rats; conditions: 5 mg/kg i.p., day 1 after SCI, vs normal group
caspase-3 = assay: Caspase-3 activation (cleaved caspase-3) in urothelium of SCI model, Western blot; type: in vivo, Sprague-Dawley rats; conditions: day 3 after SCI
UPIII = assay: Urothelial marker UPIII in SCI model, Western blot; type: in vivo, Sprague-Dawley rats; conditions: day 3 after SCI
[2] = test system: urothelium (TUNEL-positive cells); assay: Urothelial cell apoptosis in SCI model, TUNEL staining; type: in vivo, Sprague-Dawley rats; conditions: day 3 after SCI; vs Vehicle
[3] = test system: psoriasis (IMQ psoriasis animal model); assay: Erythema and scaling (PASI) in IMQ psoriasis model; type: in vivo, C57BL/6 mouse
Experimental: Psoriasis caused by excessive production of skin cells was a chronic skin disease associated with various factors, including autoimmune diseases, and its symptoms included red and thickened skin and abnormally occurring scaling. […] Specifically, the back region of a C57BL/6 mouse (male, 18 to 20 g, 8 weeks) (Daehan Biolink, Eumseong, Korea) was shaved to remove hair, and then applied with IMQ cream (83 mg/day) (5%) for consecutive 5 days from Day 0 to Day 4 to induce psoriasis-like skin inflammation, and a normal control mouse (Sham) was applied with Vaseline cream (FIG. 16A).
In order to confirm the effect of YJ102 (Chemical Formula 1), a compound of the present disclosure, on psoriasis, YJ102 dissolved in DMSO, methyl pyrrolidinone, and water (1:1.5:1) was administered intraperitoneally (5 mg/kg) for a total of 3 days on Day 2, Day 3, and Day 4, and the Vehicle group was administered in the same amount of a solution of DMSO, methyl pyrrolidinone, and water (1:1.5:1) (FIG. 16A). To assess daily skin changes, PASI scores were used for erythema and scaling. The PASI score was evaluated as a severity scale of 0 to 4, in which 0 meant none, 1 meant mild, 2 meant moderate, 3 meant severe, and 4 meant very severe. (PASI Reference: Yashpal Manchanda, Abhishek De, Sudip Das, and Disha Chakraborty. Disease Assessment in Psoriasis. Indian J Dermatol. 2023 May-June; 68 (3): 278-281.)

[4] = 5 mg/kg i.p. Days 2-4, vs Vehicle

Question: What does the source list for `CCc1ccc(N(C(=O)COC)c2nc3cc(Cl)ccc3o2)cc1` [YJ102]?
Answer: sedation (sedation): sedation was not observed; collagen content in the bladder muscle [1]: maintained at a level almost similar to that of the normal group; caspase-3 activation (caspase-3): inhibited; reduction in level of UPIII (urothelial loss) (UPIII): inhibited; number of TUNEL-positive cells in the urothelium [2]: significantly reduced; symptoms (erythema and scaling) on Day 6 ([3]; 5 mg/kg i.p. Days 2-4, Day 6): appeared to be alleviated; degree of erythema (PASI) [3, 4]: significantly lower than that of the Vehicle group; degree of scaling (PASI) [3, 4]: significantly lower than that of the Vehicle group
